Reference: US6495699B2, “Metalloproteinase inhibitors, pharmaceutical compositions containing them, and their use” (Agouron Pharmaceuticals Inc., priority 1996, dated 2002)

Columns and labels:
[1] = target: T1, fibroblast collagenase-1 catalytic domain (HFC) (Homo sapiens, UniProt P03956); assay: Fluorometric MCA-peptide hydrolysis assay, fibroblast collagenase-1 (HFC); assay type: biochemical; conditions: apparent Ki; 10 μM MCA peptide substrate, 37° C., pH 7.5; read-out: HFC (Ki,app)
T1 construct: The catalytic domain of human collagenase-1 was expressed as a fusion protein with ubiquitin in E. coli; ubiquitin (cleaved yes); made in house; host or cells: E. coli
T1 sequence (P03956 100-269 limits assumed): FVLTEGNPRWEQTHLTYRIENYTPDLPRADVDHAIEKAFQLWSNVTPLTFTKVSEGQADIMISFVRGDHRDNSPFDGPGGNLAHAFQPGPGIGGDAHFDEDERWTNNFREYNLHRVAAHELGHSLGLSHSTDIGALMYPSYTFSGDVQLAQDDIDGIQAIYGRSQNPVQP
Protocol: The catalytic domain of human collagenase-1 was expressed as a fusion protein with ubiquitin in E. coli (see Gehring, E. R., J Biol. Chem., 1995, 270, 22507). After purification of the fusion protein, the fibroblast collagenase-1 catalytic domain (HFC) was released either by treatment with purified, active stromelysin-1 (1:50 w/w ratio), which generated nearly 100% N-terminal Phe1, or by autoprocessing the concentrated collagenase-1 fusion and then incubating at 37° C. for 1 hour. Final purification was completed using zinc chelate chromatography.
Assays were performed in assay buffer (50 mM Tricine pH 7.5, 200 mM sodium chloride, 10 mM calcium chloride, 0.5 mM zinc acetate containing 2% dimethyl sulfoxide (DMSO)) once the substrate and inhibitor were diluted into it. Stock solutions of inhibitors were prepared in 100% DMSO. Stock solutions of the substrate were prepared in 100% DMSO at a concentration of 6 mM.
The assay method was based on the hydrolysis of MCA-Pro-Leu-Gly-Leu-DPA-Ala-Arg-NH2 (American Peptide Co.) at 37° C. (see Knight, C. G. et al., FEBS, 1992, 296, 263-266). The fluorescence changes were monitored with a Perkin-Elmer LS-50B fluorimeter using an excitation wavelength of 328 nm and an emission wavelength of 393 nm. The substrate concentration used in the assays was 10 μM. The inhibitor was diluted into the assays from a solution in 100% DMSO, and controls substituted an equal volume of DMSO so that the final DMSO concentration from inhibitor and substrate dilution in all assays was 2%. […] Proper determination of steady-state rates of substrate cleavage required assay lengths of 60 minutes to allow for complete equilibration of the enzyme-inhibitor complex.
The Km for the MCA peptide substrate with the matrix metalloproteinases is quite high and exceeds its solubility under assay conditions. Consequently, the apparent Ki (Ki,app) was determined to describe the strength of inhibition. However, in this case, Ki,app would be essentially equal to Ki since [S]<<Km. For the determination of Ki,app, the concentration of the inhibitor was varied at a constant and low concentration of substrate and the steady-state rates of fluorescence change determined. In most cases absorptive quench due to the presence of ligand was not observed. For slow-binding inhibitors, onset of inhibition curves were collected for at least 45 minutes so that equilibrium was established. Steady-state rates of fluorescence change were obtained by fitting a curve to an equation for a single exponential decay containing a linear phase. The fitted value of the linear phase was taken as the steady-state rate. The steady-state rates were fitted to the Michaelis equation describing competitive inhibition by non-linear methods. Data resulting from tight-binding inhibition was analyzed, and Ki,app determined by fitting the data to the tight-binding equation of Morrison (Biochem. Biophys. Acta, vol. 185, pp. 269-286 (1969)) by non-linear methods.

[2] = target: T2, catalytic domain of human stromelysin (Hsln) (Homo sapiens, UniProt P08254); assay: Fluorometric MCA-peptide hydrolysis assay, stromelysin (Hsln); assay type: biochemical; conditions: apparent Ki; 10 μM MCA peptide substrate, 37° C., pH 7.5; read-out: Hsln (Ki,app)
T2 construct: The catalytic domain of human stromelysin (Hsln) was obtained by expression and purification of a C-terminally truncated prostromelysin-1; made in house; host or cells: E. coli BL21
In short: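 APMA-activated E. coli–expressed catalytic domain, with 10 μM MCA-Pro-Leu-Gly-Leu-DPA-Ala-Arg-NH2 at 37 °C. Buffer was pH 7.5 Tricine with NaCl, CaCl2, zinc acetate and 2% final DMSO; fluorescence read at ex 328/em 393 nm over 60 min. Ki,app from steady-state rates fitted to competitive or Morrison tight-binding equations.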

[3] = Determination of inhibitor concentration in plasma after oral dosing; assay type: in vivo, Sprague Dawley rats; conditions: Sprague-Dawley, rat plasma
Protocol: The dosing solution consisted of the inhibitor dissolved in either a molar equivalent of HCl in water (vehicle A), in 60% aq. propylene glycol (vehicle B), or in 2.8 mg/mL sodium bicarbonate in 60% aqueous propylene glycol (vehicle C), yielding a final concentration that ranged from 10-15 mg/ml. Sprague Dawley rats (Hilltop Lab Animals, Scottsdale, Pa.) were dosed as a function of drug weight per body weight, usually 50 mgper kg. Blood was taken from the rats and centrifuged, and the plasma was stored in the freezer. Drug was extracted from a 50 μl plasma aliquot by adding 1 ml of acetonitrile, shaking for 2 minutes, centrifuging for 15 minutes at 4000 rpm, collecting the supernatant, and then evaporating it to dryness under a stream of nitrogen. The samples were reconstituted with 130 μl of mobile phase, shook for 2 minutes, and centrifuged for 15 minutes at 4000 rpm. The supernatant was collected and the samples were analyzed by injecting 100 μl of supernatant onto HPLC.
Quantitation of drug levels was accomplished by generating a standard curve of known drug amounts that were extracted from added plasma. Drug levels were plotted as a function of time and analyzed to provide area under the curve (AUC) and maximum concentration (Cmax) values.

[4] = target: T3, human collagenase-3 (Coll3) (Homo sapiens, UniProt P45452); assay: Fluorometric MCA-peptide hydrolysis assay, collagenase-3 (Coll3); assay type: biochemical; conditions: apparent Ki; 10 μM MCA peptide substrate, 37° C., pH 7.5; read-out: Coll3 (Ki,app)
T3 construct: the catalytic domain was liberated by treatment with 2 mM APMA at room temperature overnight; ubiquitin (N, cleaved yes); made in house; host or cells: E. coli

[5] = target: T4, human progelatinase A (GelA), catalytic and fibronectin-like portion (Homo sapiens, UniProt P08253); assay: Fluorometric MCA-peptide hydrolysis assay, gelatinase A (GelA); assay type: biochemical; conditions: apparent Ki; 10 μM MCA peptide substrate, 37° C., pH 7.5
T4 construct: The catalytic and fibronectin-like portion of human progelatinase A (GelA) was expressed as a fusion protein with ubiquitin; ubiquitin; made in house; host or cells: E. coli
In short: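 E. coli-expressed ubiquitin fusion of human proGelA catalytic plus fibronectin-like domains, autoactivated; 10 μM MCA-Pro-Leu-Gly-Leu-DPA-Ala-Arg-NH2, pH 7.5 Tricine/NaCl/CaCl2/Zn buffer, 2% DMSO, 37° C, 60 min. Fluorescence 328/393 nm; steady-state rates fitted to competitive inhibition or Morrison tight-binding equation giving Ki,app (≈Ki since [S]<<Km).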

Human matrilysin (Matr) = target: T5, Human matrilysin (Matr) (Homo sapiens, UniProt P09237); assay: Fluorometric MCA-peptide hydrolysis assay, matrilysin (Matr); assay type: biochemical; conditions: apparent Ki; 10 μM MCA peptide substrate, 37° C., pH 7.5; read-out: Matr (Ki,app)
T5 construct: the catalytic domain was liberated by treatment with 2 mM APMA at 37° C. for 2 hours; ubiquitin (cleaved yes); made in house; host or cells: E. coli
T5 sequence (P09237 95-267): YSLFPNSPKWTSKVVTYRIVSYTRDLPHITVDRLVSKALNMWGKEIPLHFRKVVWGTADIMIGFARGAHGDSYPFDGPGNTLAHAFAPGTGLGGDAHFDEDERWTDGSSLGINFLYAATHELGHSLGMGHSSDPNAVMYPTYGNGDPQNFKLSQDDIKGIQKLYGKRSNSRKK
In short: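 Catalytic domain of E. coli-expressed human matrilysin assayed at 37° C, pH 7.5 Tricine buffer, 2% DMSO, with 10 μM MCA-Pro-Leu-Gly-Leu-DPA-Ala-Arg-NH2; fluorescence ex 328/em 393 nm over 60 min. Ki,app from steady-state rates fitted to competitive inhibition or Morrison tight-binding equation.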

[6] = dose 50 mg/kg, vehicle B (60% aq. propylene glycol)
[7] = dose 50 mg/kg, vehicle B, dosed as the benzyl ester prodrug
[8] = dose 25 mg/kg, vehicle A (molar equivalent of HCl in water)
[9] = dose 50 mg/kg, vehicle A, dosed as the benzyl ester prodrug
[10] = dose 25 mg/kg, vehicle C (2.8 mg/mL sodium bicarbonate in 60% aqueous propylene glycol)

T2 sequence (P08254 100-272 limits assumed): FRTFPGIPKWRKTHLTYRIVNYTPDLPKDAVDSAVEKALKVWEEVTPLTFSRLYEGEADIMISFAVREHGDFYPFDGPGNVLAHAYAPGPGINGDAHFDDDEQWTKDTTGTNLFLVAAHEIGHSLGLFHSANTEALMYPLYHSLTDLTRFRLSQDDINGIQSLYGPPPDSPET
T4 sequence (P08253 110-465 limits assumed): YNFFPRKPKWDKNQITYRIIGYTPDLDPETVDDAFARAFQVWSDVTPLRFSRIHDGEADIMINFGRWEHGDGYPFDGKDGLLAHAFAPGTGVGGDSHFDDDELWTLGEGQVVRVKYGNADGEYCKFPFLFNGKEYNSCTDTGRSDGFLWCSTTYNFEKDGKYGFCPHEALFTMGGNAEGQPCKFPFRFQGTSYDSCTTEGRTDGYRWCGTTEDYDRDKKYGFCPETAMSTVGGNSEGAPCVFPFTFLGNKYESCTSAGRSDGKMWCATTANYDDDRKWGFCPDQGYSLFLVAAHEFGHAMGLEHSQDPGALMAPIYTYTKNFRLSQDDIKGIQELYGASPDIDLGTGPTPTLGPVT

## CNC(=O)[C@@H](NC(=O)[C@@H](CC(=O)O)n1ccc(-c2ccc(C#N)cc2)c1)C(C)(C)C [Example 1(m), 3 (R)-[3-(4-Cyanophenyl)-1H-pyrrol-1-yl]-N-[2,2-dimethyl-1(S)-(methylcarbamoyl)propyl]succinamic Acid]
[1]
  Ki: 997 nM
[2]
  Ki: 50 nM
[3]; [6]
  AUC: 967 ng·h/mL
  Cmax: 590 ng/mL
other
  melting point: 138 to 140 °C
[4]
  Ki: 1 nM
[5]
  GelA (Ki,app): 0.41 nM

## CCOC(=O)c1ccc(NC(=O)[C@H](CC(C)C)NC(=O)[C@@H](CC(=O)O)n2cccc2)cc1 [Example 1(n), 4-[2S-(3-Carboxy-2(R)-1H-pyrrol-1-yl-propionylamido)-4-methyl-pentanoylamino]benzoic Acid Ethyl Ester]
[1]
  Ki: 1900 nM
[2]
  Ki: 2000 nM
other
  melting point: 111 to 114 °C
Human matrilysin (Matr)
  Ki: > 10000 nM
[4]
  Ki: 8500 nM

## CNC(=O)[C@@H](NC(=O)[C@@H](CC(=O)O)n1ccc(-c2ccc(-c3ccncc3)cc2)c1)C(C)(C)C [Example 6(b), N-(2,2-Dimethyl-1(S)-(methylcarbamoyl)propyl)-3(R)-[3-(4-(pyridin-4-yl)phenyl)-1H-pyrrol-1-yl]succinamic Acid]
[1]
  Ki: 2900 nM
[2]
  Ki: 3.6 nM
[3]; [7]
  AUC: 617 ng·h/mL
  Cmax: 300 ng/mL
[4]
  Ki: 0.21 nM
[5]
  GelA (Ki,app): 0.066 nM

## CC1(C)COC(=O)[C@H]1NC(=O)[C@@H](CC(=O)O)n1ccc(-c2ccc(-c3ccncc3)cc2)c1 [Example 6(c), N-(4,4-Dimethyl-2-oxo-tetrahydrofuran-3(S)-yl)-3(R)-[3-[4-(pyridin-4-yl)phenyl]-1H-pyrrol-1-yl]succinamic Acid]
[2]
  Ki: 54 nM
[3]; [8]
  AUC: 933 ng·h/mL
  Cmax: 450 ng/mL
[3]; [9]
  AUC: 4420 ng·h/mL
  Cmax: 1140 ng/mL
Human matrilysin (Matr)
  Ki: 5000 nM
[4]
  Ki: 7.6 nM
[5]
  GelA (Ki,app): 0.806 nM

## O=C(O)C[C@H](C(=O)N[C@H]1Cc2cn(c3ccccc23)CCOCCNC1=O)n1ccc(-c2ccc(-c3ccncc3)cc2)c1 [Example 7(a), N-(8-Oxo-4-oxa-1,7-diazatricyclo[9.6.1.0^12,17]octadeca-11(18),12,14,16-tetraen-9(S)-yl)-3(R)-[3-[4-(pyridin-4-yl)phenyl]-1H-pyrrol-1-yl]succinamic Acid]
[1]
  Ki: 333 nM
[2]
  Ki: 2 nM
other
  melting point: > 172 °C (dec.)
Human matrilysin (Matr)
  Ki: 640 nM
[4]
  Ki: 0.013 nM
[5]
  GelA (Ki,app): 0.015 nM

## CC(C)(C)[C@H](NC(=O)[C@@H](CC(=O)O)n1ccc(-c2ccc(-c3ccncc3)cc2)c1)C(=O)Nc1ccncc1 [Example 7(b), N-[2,2-Dimethyl-1(S)-(pyridin-4-ylcarbamoyl)propyl]-3(R)-[3-[4-(pyridin-4-yl)phenyl]-1H-pyrrol-1-yl]succinamic Acid]
[1]
  Ki: 453 nM
[2]
  Ki: 0.29 nM
[3]; [6]
  AUC: 400 ng·h/mL
  Cmax: 210 ng/mL
Human matrilysin (Matr)
  Ki: 5 nM
[4]
  Ki: 0.01 nM
[5]
  GelA (Ki,app): 0.007 nM

## O=C(O)C[C@H](C(=O)N[C@H](CO)Cc1ccccc1)c1ccn(-c2ccc(-c3ccccc3)cc2)c1 [Example 13]
[1]
  Ki: 72000 nM
[2]
  Ki: 35 nM
other
  melting point: 151 to 154 °C
Human matrilysin (Matr)
  Ki: 16900 nM
[4]
  Ki: 21 nM
[5]
  GelA (Ki,app): 1.7 nM

## CNC(=O)[C@@H](NC(=O)[C@@H](CC(=O)O)c1ccn(-c2ccc(F)cc2)c1)C(C)(C)C [Example 14(a), N-[2,2-Dimethyl-1(S)-(methylcarbamoyl)propyl]-3(S)-[1-(4-fluorophenyl)-1H-pyrrol-3-yl]succinamic Acid]
[2]
  Ki: 558 nM
[3]; [6]
  AUC: 1570 ng·h/mL
  Cmax: 820 ng/mL
[4]
  Ki: 7.2 nM
[5]
  GelA (Ki,app): 4.3 nM

## CC1(C)COC(=O)[C@H]1NC(=O)[C@@H](CC(=O)O)c1ccn(-c2ccc(-c3ccc(C#N)cc3)cc2)c1 [Example 14(d), 3(S)-[1-(4′-Cyanobiphenyl-4-yl)-1H-pyrrol-3-yl]-N-(4,4-dimethyl-2-oxo-tetrahydrofuran-3(S)-yl)succinamic Acid]
[2]
  Ki: 19 nM
[3]; [10]
  AUC: 5820 ng·h/mL
  Cmax: 1370 ng/mL
[5]
  GelA (Ki,app): 0.9 nM

## COC(=O)c1ccc(NC(=O)[C@H](CC(C)C)NC(=O)[C@@H](CC(=O)O)c2ccsc2)cc1 [Example 17(b), 4-[2(S)-[2(R)-Carboxymethyl-2-(thien-3-yl)acetylamino]-4-methyl-valeroyl]-aminobenzoic Acid Methyl Ester]
[1]
  Ki: 20000 nM
[2]
  Ki: 720 nM
other
  melting point: 199 to 201 °C
Human matrilysin (Matr)
  Ki: 309 nM
